Reference: ChEMBL document CHEMBL5715954, “Silencing c-Myc translation as a therapeutic strategy through targeting PI3Kδ and CK1ε in hematological malignancies” (Blood, 2017)

What was measured:
Set-up in all cases: scale not given: the % may be the effect or the level left
[1] = molecular target: Casein kinase I isoform delta (Homo sapiens) (UniProt P48730); experiment: Inhibition of human CK1delta assessed as enzyme activity at 1 uM using KRRRAL[pS]VASLPGL as substrate preincubated for 20 mins followed by [gamma-33P]-ATP addition and measured after 120 mins by radiometric Hot-SpotSM Kinase assay relative to control
Sequence of Casein kinase I isoform delta (Homo sapiens) (P48730 whole entry, looked up, canonical isoform): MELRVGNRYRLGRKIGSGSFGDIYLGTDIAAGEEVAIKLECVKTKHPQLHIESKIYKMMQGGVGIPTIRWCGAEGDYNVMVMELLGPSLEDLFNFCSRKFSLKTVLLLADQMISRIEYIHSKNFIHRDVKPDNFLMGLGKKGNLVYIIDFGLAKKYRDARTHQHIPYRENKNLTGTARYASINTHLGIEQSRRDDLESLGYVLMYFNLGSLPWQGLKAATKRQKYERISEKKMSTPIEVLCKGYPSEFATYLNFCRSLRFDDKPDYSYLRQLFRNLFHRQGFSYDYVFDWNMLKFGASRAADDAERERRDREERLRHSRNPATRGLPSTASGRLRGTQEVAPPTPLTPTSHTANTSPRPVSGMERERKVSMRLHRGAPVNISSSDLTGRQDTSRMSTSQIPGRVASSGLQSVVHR

[2] = molecular target: G protein-coupled receptor kinase 4 (Homo sapiens) (UniProt P32298); experiment: Inhibition of human GRK4 assessed as enzyme activity at 1 uM using casein as substrate preincubated for 20 mins followed by [gamma-33P]-ATP addition and measured after 120 mins by radiometric Hot-SpotSM Kinase assay relative to control
Sequence of G protein-coupled receptor kinase 4 (Homo sapiens) (P32298 whole entry, looked up): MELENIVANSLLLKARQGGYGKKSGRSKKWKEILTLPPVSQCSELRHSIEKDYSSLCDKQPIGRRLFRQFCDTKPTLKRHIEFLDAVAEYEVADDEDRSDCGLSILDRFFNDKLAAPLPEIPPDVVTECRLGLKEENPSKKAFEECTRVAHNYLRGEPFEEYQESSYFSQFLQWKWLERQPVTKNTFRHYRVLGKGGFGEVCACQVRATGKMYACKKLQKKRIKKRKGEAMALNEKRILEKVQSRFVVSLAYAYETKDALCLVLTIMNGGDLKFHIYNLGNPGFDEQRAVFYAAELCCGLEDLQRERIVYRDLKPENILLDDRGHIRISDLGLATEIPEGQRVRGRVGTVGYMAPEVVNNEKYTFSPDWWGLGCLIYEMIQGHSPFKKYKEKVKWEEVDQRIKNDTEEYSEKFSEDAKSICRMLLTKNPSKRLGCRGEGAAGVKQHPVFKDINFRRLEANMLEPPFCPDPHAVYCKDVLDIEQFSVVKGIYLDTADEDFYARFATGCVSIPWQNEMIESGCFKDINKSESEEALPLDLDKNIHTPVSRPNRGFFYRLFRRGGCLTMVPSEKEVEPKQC

[3] = molecular target: T1, Mitogen-activated protein kinase kinase kinase kinase 3 (Homo sapiens) (UniProt Q8IVH8); experiment: Inhibition of human GLK/MAP4K3 assessed as enzyme activity at 1 uM using myelin basic protein as substrate preincubated for 20 mins followed by [gamma-33P]-ATP addition and measured after 120 mins by radiometric Hot-SpotSM Kinase assay relative to control
T1 sequence (whole entry): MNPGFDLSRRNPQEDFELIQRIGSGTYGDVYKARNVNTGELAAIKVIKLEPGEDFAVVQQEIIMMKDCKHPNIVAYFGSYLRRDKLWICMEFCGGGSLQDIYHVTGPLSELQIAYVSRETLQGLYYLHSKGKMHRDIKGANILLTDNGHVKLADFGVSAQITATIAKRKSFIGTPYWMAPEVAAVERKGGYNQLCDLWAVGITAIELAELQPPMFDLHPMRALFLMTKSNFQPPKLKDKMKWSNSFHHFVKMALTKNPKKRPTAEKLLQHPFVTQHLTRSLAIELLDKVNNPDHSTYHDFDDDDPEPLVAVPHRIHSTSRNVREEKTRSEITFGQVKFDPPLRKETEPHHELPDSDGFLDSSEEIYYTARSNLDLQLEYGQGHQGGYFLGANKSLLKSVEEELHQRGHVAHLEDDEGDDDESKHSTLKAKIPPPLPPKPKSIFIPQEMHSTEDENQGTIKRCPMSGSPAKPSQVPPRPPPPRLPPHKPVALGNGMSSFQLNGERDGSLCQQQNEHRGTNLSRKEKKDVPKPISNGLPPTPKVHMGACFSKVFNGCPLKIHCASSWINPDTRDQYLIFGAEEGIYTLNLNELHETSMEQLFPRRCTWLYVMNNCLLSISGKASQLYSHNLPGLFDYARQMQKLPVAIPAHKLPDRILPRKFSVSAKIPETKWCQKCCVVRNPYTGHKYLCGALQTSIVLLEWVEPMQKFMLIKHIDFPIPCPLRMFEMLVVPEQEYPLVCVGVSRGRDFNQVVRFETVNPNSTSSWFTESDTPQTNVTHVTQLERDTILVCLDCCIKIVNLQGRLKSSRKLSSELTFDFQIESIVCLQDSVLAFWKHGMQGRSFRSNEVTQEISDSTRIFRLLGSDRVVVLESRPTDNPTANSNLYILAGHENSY

[4] = molecular target: Fibroblast growth factor receptor 1 (Homo sapiens) (UniProt P11362); experiment: Inhibition of human FGFR1 assessed as enzyme activity at 1 uM using poly[Glu:Tyr] (4:1) as substrate preincubated for 20 mins followed by [gamma-33P]-ATP addition and measured after 120 mins by radiometric Hot-SpotSM Kinase assay relative to control
Sequence of Fibroblast growth factor receptor 1 (Homo sapiens) (P11362 22-822 limits assumed): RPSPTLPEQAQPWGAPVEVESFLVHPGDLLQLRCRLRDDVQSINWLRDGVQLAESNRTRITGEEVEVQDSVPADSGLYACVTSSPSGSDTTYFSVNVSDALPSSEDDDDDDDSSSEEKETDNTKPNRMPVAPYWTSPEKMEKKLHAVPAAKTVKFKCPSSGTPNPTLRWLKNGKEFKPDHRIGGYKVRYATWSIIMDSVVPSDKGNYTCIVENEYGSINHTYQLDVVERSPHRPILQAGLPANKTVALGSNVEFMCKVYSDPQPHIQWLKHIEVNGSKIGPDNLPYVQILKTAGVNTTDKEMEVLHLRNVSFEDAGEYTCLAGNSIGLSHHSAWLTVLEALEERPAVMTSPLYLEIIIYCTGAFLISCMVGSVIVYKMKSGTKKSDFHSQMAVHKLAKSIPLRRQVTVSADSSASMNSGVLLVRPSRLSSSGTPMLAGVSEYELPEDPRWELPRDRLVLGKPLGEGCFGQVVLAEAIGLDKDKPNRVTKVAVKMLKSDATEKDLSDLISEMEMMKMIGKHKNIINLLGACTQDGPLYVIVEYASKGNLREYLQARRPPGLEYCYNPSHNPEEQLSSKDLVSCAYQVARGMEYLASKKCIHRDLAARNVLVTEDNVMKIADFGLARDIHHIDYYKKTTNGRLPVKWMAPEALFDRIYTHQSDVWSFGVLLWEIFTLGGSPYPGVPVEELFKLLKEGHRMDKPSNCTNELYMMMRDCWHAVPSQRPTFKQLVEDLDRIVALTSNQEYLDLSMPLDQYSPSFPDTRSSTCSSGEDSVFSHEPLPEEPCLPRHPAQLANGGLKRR

[5] = molecular target: Insulin receptor-related protein (Homo sapiens) (UniProt P14616); experiment: Inhibition of human IRR assessed as enzyme activity at 1 uM using myelin basic protein as substrate preincubated for 20 mins followed by [gamma-33P]-ATP addition and measured after 120 mins by radiometric Hot-SpotSM Kinase assay relative to control
Sequence of Insulin receptor-related protein (Homo sapiens) (P14616 27-742 limits assumed): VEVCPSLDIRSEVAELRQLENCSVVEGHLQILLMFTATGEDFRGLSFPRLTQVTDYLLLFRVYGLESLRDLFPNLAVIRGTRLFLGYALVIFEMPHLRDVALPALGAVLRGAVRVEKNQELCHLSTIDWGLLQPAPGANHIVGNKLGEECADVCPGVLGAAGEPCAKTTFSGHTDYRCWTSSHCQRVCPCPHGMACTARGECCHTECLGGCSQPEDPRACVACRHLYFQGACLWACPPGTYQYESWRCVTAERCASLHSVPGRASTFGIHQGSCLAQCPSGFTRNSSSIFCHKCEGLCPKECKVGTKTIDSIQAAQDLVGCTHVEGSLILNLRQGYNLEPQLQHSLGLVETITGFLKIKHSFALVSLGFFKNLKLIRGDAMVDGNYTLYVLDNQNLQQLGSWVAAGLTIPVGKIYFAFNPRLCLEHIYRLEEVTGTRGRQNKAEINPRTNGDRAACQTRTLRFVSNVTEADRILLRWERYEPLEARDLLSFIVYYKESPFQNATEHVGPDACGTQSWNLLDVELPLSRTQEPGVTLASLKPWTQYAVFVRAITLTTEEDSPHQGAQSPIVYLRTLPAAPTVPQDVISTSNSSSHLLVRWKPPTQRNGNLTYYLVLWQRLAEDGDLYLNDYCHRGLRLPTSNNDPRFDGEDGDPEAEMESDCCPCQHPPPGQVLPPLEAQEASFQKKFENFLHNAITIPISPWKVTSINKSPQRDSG
Sequence of Insulin receptor-related protein (Homo sapiens) (P14616 747-1297 limits assumed): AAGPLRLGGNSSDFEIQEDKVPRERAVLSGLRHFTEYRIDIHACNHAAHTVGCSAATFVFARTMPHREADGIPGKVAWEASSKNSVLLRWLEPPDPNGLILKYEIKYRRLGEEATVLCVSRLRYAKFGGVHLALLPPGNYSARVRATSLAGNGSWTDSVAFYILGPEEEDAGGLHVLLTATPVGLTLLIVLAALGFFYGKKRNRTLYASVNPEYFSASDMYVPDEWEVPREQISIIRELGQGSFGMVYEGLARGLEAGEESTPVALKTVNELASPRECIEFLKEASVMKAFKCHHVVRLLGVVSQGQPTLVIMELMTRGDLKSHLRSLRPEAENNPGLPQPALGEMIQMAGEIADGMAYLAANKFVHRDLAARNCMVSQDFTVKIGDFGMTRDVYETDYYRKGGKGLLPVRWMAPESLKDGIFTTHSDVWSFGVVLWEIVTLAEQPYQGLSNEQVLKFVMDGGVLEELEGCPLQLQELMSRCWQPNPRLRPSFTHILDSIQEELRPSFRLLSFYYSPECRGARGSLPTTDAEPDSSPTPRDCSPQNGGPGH

[6] = molecular target: Death-associated protein kinase 3 (Homo sapiens) (UniProt O43293); experiment: Inhibition of human ZIPK assessed as enzyme activity at 1 uM using KKLNRTLSFAEPG as substrate preincubated for 20 mins followed by [gamma-33P]-ATP addition and measured after 120 mins by radiometric Hot-SpotSM Kinase assay relative to control
Sequence of Death-associated protein kinase 3 (Homo sapiens) (O43293 whole entry, looked up): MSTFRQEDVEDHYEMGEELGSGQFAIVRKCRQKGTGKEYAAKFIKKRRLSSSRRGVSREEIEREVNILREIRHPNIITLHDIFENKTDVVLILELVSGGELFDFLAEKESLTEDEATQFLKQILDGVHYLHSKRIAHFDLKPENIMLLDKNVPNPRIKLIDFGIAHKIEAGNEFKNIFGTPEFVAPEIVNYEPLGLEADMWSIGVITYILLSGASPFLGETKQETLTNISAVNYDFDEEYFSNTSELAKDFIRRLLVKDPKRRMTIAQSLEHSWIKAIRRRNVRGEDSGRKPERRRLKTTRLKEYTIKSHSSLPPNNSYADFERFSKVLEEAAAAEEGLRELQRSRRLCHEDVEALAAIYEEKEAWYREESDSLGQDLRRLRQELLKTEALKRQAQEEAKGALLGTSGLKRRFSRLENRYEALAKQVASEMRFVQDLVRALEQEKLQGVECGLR

[7] = molecular target: Tyrosine-protein kinase Lck (Homo sapiens) (UniProt P06239); experiment: Inhibition of human LCK assessed as enzyme activity at 1 uM using poly[Glu:Tyr] (4:1) as substrate preincubated for 20 mins followed by [gamma-33P]-ATP addition and measured after 120 mins by radiometric Hot-SpotSM Kinase assay relative to control
Sequence of Tyrosine-protein kinase Lck (Homo sapiens) (P06239 2-509 limits assumed): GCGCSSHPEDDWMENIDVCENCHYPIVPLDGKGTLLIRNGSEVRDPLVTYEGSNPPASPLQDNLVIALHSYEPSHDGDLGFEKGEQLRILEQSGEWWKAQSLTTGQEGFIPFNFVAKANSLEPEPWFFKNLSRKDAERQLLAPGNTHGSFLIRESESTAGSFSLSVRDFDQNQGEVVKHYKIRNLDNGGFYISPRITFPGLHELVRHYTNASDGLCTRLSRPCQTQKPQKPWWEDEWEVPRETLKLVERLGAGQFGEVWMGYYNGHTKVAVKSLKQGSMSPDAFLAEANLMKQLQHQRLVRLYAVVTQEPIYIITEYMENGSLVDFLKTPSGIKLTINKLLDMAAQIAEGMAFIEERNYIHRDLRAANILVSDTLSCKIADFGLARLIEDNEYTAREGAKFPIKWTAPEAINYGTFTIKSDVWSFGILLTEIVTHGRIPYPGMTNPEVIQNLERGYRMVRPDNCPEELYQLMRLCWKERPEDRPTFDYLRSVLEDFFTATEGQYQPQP

[8] = molecular target: Mitogen-activated protein kinase kinase kinase 9 (Homo sapiens) (UniProt P80192); experiment: Inhibition of human MLK1 assessed as enzyme activity at 1 uM using casein as substrate preincubated for 20 mins followed by [gamma-33P]-ATP addition and measured after 120 mins by radiometric Hot-SpotSM Kinase assay relative to control
[9] = molecular target: CDK9/Cyclin K (Homo sapiens) (UniProt P50750+O75909); experiment: Inhibition of human CDK9/cyclin K assessed as enzyme activity at 1 uM using KTFCGTPEYLAPEVRREPRILSEEEQEMFRDFDYIADWC as substrate preincubated for 20 mins followed by [gamma-33P]-ATP addition and measured after 120 mins by radiometric Hot-SpotSM Kinase assay relative to control; format: protein-complex assay
[10] = molecular target: Dual specificity mitogen-activated protein kinase kinase 1 (Homo sapiens) (UniProt Q02750); experiment: Inhibition of human MEK1 assessed as enzyme activity at 1 uM using ERK2 (K52R) as substrate preincubated for 20 mins followed by [gamma-33P]-ATP addition and measured after 120 mins by radiometric Hot-SpotSM Kinase assay relative to control
Sequence of Dual specificity mitogen-activated protein kinase kinase 1 (Homo sapiens) (Q02750 whole entry): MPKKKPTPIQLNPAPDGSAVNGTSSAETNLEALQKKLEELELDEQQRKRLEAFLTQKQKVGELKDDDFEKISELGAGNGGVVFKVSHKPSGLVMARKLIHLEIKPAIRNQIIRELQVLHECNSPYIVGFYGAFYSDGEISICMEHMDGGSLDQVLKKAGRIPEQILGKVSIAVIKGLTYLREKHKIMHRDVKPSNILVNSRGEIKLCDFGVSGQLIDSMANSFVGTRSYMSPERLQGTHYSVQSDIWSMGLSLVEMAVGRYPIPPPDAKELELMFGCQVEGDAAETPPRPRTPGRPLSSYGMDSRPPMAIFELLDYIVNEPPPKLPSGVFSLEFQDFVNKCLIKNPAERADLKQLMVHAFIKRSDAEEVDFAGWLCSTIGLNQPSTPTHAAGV

[11] = molecular target: Protein kinase C gamma type (Homo sapiens) (UniProt P05129); experiment: Inhibition of human PKCg assessed as enzyme activity at 1 uM using ERMRPRKRQGSVRRRV as substrate preincubated for 20 mins followed by [gamma-33P]-ATP addition and measured after 120 mins by radiometric Hot-SpotSM Kinase assay relative to control
[12] = molecular target: Tyrosine-protein kinase HCK (Homo sapiens) (UniProt P08631); experiment: Inhibition of human HCK assessed as enzyme activity at 1 uM using KVEKIGEGTYGVVYK as substrate preincubated for 20 mins followed by [gamma-33P]-ATP addition and measured after 120 mins by radiometric Hot-SpotSM Kinase assay relative to control
Sequence of Tyrosine-protein kinase HCK (Homo sapiens) (P08631 2-526 limits assumed): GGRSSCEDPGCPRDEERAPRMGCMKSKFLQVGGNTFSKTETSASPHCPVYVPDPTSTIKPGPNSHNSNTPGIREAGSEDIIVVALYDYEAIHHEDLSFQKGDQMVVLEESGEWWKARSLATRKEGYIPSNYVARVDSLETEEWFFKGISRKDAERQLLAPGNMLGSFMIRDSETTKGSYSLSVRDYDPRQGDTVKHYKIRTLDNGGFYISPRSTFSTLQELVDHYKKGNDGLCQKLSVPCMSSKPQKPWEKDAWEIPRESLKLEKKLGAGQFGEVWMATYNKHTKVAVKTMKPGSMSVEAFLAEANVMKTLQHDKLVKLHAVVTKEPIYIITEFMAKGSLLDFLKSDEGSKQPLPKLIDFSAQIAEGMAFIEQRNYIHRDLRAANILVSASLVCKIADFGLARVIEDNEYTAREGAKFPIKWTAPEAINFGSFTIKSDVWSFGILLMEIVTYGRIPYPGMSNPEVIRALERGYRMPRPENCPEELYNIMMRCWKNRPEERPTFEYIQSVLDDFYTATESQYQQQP

Compound `CC[C@H](Nc1ncnc2[nH]cnc12)c1nc2cccc(F)c2c(=O)n1-c1ccccc1` has an Activity [1] of 96.5%, an Activity [2] of 93.2% and an Activity [3] of 95.2%. For the same compound, the Activity [4] was 98%, the Activity [5] was 93.9% and the Activity [6] was 99.3%. For the same compound, the Activity [7] was 88.5%, the Activity [8] was 91.2% and the Activity [9] was 91.5%. For the same compound, the Activity [10] was 100%, the Activity [11] was 96% and the Activity [12] was 93.9%.

`C[C@H](Nc1ncnc2nc[nH]c12)c1cc2cccc(Cl)c2c(=O)n1-c1ccccc1` showed an Activity [1] of 97%, an Activity [2] of 92.2% and an Activity [3] of 98.3%. The Activity [4] was 95.7%, the Activity [5] was 95.9% and the Activity [6] was 107%. It also gave an Activity [7] of 94.7%, an Activity [8] of 94% and an Activity [9] of 93.1%. For the same compound, the Activity [10] was 97.2%, the Activity [11] was 97.3% and the Activity [12] was 98.7%.

For `CC(C)Oc1ccc(-c2nn([C@@H](C)c3oc4ccc(F)cc4c(=O)c3-c3cccc(F)c3)c3ncnc(N)c23)cc1F` [UMBRALISIB], the Activity [1] was 97.7%, the Activity [2] was 95.1% and the Activity [3] was 99.3%. For the same compound, the Activity [4] was 99.5%, the Activity [5] was 96.4% and the Activity [6] was 103%. The Activity [7] was 96.8%, the Activity [8] was 97.6% and the Activity [9] was 88.8%. For the same compound, the Activity [10] was 94.4%, the Activity [11] was 99.8% and the Activity [12] was 91%.
